From PubChem BioAssay (NCI)
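All cell lines were grown in 96-well plates and treated with compound for 48 hours. Here, GI50 denotes the concentration required for 50% inhibition of growth. At the TGI there is no net growth.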

What was measured:
Assay in all cases: growth of human tumour cells (NCI), 48 h
SK-MEL-5 melanoma = tested on: SK-MEL-5 melanoma
OVCAR-5 ovarian = tested on: OVCAR-5 ovarian
UO-31 renal = tested on: UO-31 renal
NCI-H522 lung = tested on: NCI-H522 lung
IGROV1 ovarian = tested on: IGROV1 ovarian
BT-549 breast = tested on: BT-549 breast
UACC-62 melanoma = tested on: UACC-62 melanoma
DU-145 prostate = tested on: DU-145 prostate
SNB-75 CNS = tested on: SNB-75 CNS
SN12C renal = tested on: SN12C renal
SK-OV-3 ovarian = tested on: SK-OV-3 ovarian
NCI-H460 lung = tested on: NCI-H460 lung
A549 NSCLC = tested on: A549 NSCLC
RPMI-8226 leukemia = tested on: RPMI-8226 leukemia
HCT-116 colon = tested on: HCT-116 colon
HOP-92 NSCLC = tested on: HOP-92 NSCLC
K-562 leukemia = tested on: K-562 leukemia
HCC-2998 colon = tested on: HCC-2998 colon
TK-10 renal = tested on: TK-10 renal
HOP-62 NSCLC = tested on: HOP-62 NSCLC
M14 melanoma = tested on: M14 melanoma
COLO 205 colon = tested on: COLO 205 colon
SF-539 CNS = tested on: SF-539 CNS
MDA-MB-435 = tested on: MDA-MB-435
MDA-MB-231 breast = tested on: MDA-MB-231 breast
SR leukemia = tested on: SR leukemia
SNB-19 CNS = tested on: SNB-19 CNS
SF-295 CNS = tested on: SF-295 CNS
SK-MEL-2 melanoma = tested on: SK-MEL-2 melanoma
OVCAR-8 ovarian = tested on: OVCAR-8 ovarian
NCI-H226 lung = tested on: NCI-H226 lung
HT29 colon = tested on: HT29 colon
PC-3 prostate = tested on: PC-3 prostate
HL-60(TB) leukemia = tested on: HL-60(TB) leukemia
SW-620 colon = tested on: SW-620 colon
OVCAR-3 ovarian = tested on: OVCAR-3 ovarian
UACC-257 melanoma = tested on: UACC-257 melanoma
OVCAR-4 ovarian = tested on: OVCAR-4 ovarian
MDA-MB-468 breast = tested on: MDA-MB-468 breast
HS 578T breast = tested on: HS 578T breast
T-47D breast = tested on: T-47D breast
SF-268 CNS = tested on: SF-268 CNS
RXF 393 renal = tested on: RXF 393 renal
SK-MEL-28 melanoma = tested on: SK-MEL-28 melanoma
MOLT-4 leukemia = tested on: MOLT-4 leukemia
LOX IMVI melanoma = tested on: LOX IMVI melanoma
MALME-3M melanoma = tested on: MALME-3M melanoma
786-0 renal = tested on: 786-0 renal
EKVX NSCLC = tested on: EKVX NSCLC
MCF7 breast = tested on: MCF7 breast
ACHN renal = tested on: ACHN renal
CCRF-CEM leukemia = tested on: CCRF-CEM leukemia
KM12 colon = tested on: KM12 colon
NCI-H23 lung = tested on: NCI-H23 lung
A498 renal = tested on: A498 renal
HCT-15 colon = tested on: HCT-15 colon
CAKI-1 renal = tested on: CAKI-1 renal
U251 CNS = tested on: U251 CNS

O=C(c1ccc(Cl)cc1)C1[C@H](c2ccc(Br)cc2)[C@@H](c2ccccc2)NC12C(=O)Nc1ccccc12 (stereo partly specified)
GI50 (SK-MEL-5 melanoma): 9.7 µM
TGI (SK-MEL-5 melanoma): 17.7 µM
GI50 (OVCAR-5 ovarian): 7.19 µM
TGI (OVCAR-5 ovarian): 15.1 µM
GI50 (UO-31 renal): 3.37 µM
TGI (UO-31 renal): 12 µM
GI50 (NCI-H522 lung): 5.93 µM
TGI (NCI-H522 lung): 15.5 µM
GI50 (IGROV1 ovarian): 7.01 µM
TGI (IGROV1 ovarian): 16.2 µM
GI50 (BT-549 breast): 8.86 µM
TGI (BT-549 breast): 17 µM
GI50 (UACC-62 melanoma): 4.16 µM
TGI (UACC-62 melanoma): 12.1 µM
GI50 (DU-145 prostate): 9.92 µM
TGI (DU-145 prostate): 28.5 µM
GI50 (SNB-75 CNS): 5.1 µM
TGI (SNB-75 CNS): 26.1 µM
GI50 (SN12C renal): 5.41 µM
TGI (SN12C renal): 12.3 µM
GI50 (SK-OV-3 ovarian): 14.8 µM
TGI (SK-OV-3 ovarian): 54 µM
GI50 (NCI-H460 lung): 5.88 µM
TGI (NCI-H460 lung): 16 µM
GI50 (A549 NSCLC): 5.03 µM
TGI (A549 NSCLC): 15.9 µM
GI50 (RPMI-8226 leukemia): 6.53 µM
TGI (RPMI-8226 leukemia): 33.9 µM
GI50 (HCT-116 colon): 3.83 µM
TGI (HCT-116 colon): 13.5 µM
GI50 (HOP-92 NSCLC): 6.27 µM
TGI (HOP-92 NSCLC): 15.1 µM
GI50 (K-562 leukemia): 2.94 µM
TGI (K-562 leukemia): 56 µM
GI50 (HCC-2998 colon): 7.79 µM
TGI (HCC-2998 colon): 16.7 µM
GI50 (TK-10 renal): 8.72 µM
TGI (TK-10 renal): 20.1 µM
GI50 (HOP-62 NSCLC): 8.69 µM
TGI (HOP-62 NSCLC): 18.3 µM
GI50 (M14 melanoma): 6.97 µM
TGI (M14 melanoma): 16.4 µM
GI50 (COLO 205 colon): 9.95 µM
TGI (COLO 205 colon): 19.6 µM
GI50 (SF-539 CNS): 8.59 µM
TGI (SF-539 CNS): 18 µM
GI50 (MDA-MB-435): 7.84 µM
TGI (MDA-MB-435): 16.9 µM
GI50 (MDA-MB-231 breast): 6.21 µM
TGI (MDA-MB-231 breast): 13.5 µM
GI50 (SR leukemia): 4.32 µM
TGI (SR leukemia): 42.2 µM
GI50 (SNB-19 CNS): 10.7 µM
TGI (SNB-19 CNS): 42.2 µM
GI50 (SF-295 CNS): 6.33 µM
TGI (SF-295 CNS): 16.9 µM
GI50 (SK-MEL-2 melanoma): 8.59 µM
TGI (SK-MEL-2 melanoma): 16.9 µM
GI50 (OVCAR-8 ovarian): 8.26 µM
TGI (OVCAR-8 ovarian): 17.3 µM
GI50 (NCI-H226 lung): 7.87 µM
TGI (NCI-H226 lung): 15.9 µM
GI50 (HT29 colon): 5.7 µM
TGI (HT29 colon): 15 µM
GI50 (PC-3 prostate): 2.86 µM
TGI (PC-3 prostate): 17.7 µM
GI50 (HL-60(TB) leukemia): 8.74 µM
TGI (HL-60(TB) leukemia): 40.8 µM
GI50 (SW-620 colon): 7.4 µM
TGI (SW-620 colon): 18.6 µM
GI50 (OVCAR-3 ovarian): 8.74 µM
TGI (OVCAR-3 ovarian): 27.4 µM
GI50 (UACC-257 melanoma): 7.28 µM
TGI (UACC-257 melanoma): 16.3 µM
GI50 (OVCAR-4 ovarian): 8.37 µM
TGI (OVCAR-4 ovarian): 31.3 µM
GI50 (MDA-MB-468 breast): 8.43 µM
TGI (MDA-MB-468 breast): 19.5 µM
GI50 (HS 578T breast): 8.79 µM
TGI (HS 578T breast): 26.3 µM
GI50 (T-47D breast): 3.96 µM
TGI (T-47D breast): 16 µM
GI50 (SF-268 CNS): 7.03 µM
TGI (SF-268 CNS): 28.9 µM
GI50 (RXF 393 renal): 6.62 µM
TGI (RXF 393 renal): 14 µM
GI50 (SK-MEL-28 melanoma): 7.53 µM
TGI (SK-MEL-28 melanoma): 15.1 µM
GI50 (MOLT-4 leukemia): 2.69 µM
TGI (MOLT-4 leukemia): 48.7 µM
GI50 (LOX IMVI melanoma): 5.04 µM
TGI (LOX IMVI melanoma): 14.3 µM
GI50 (MALME-3M melanoma): 8.65 µM
TGI (MALME-3M melanoma): 16.3 µM
GI50 (786-0 renal): 8 µM
TGI (786-0 renal): 23.1 µM
GI50 (EKVX NSCLC): 9.02 µM
TGI (EKVX NSCLC): 29 µM
GI50 (MCF7 breast): 4.65 µM
TGI (MCF7 breast): 29.3 µM
GI50 (ACHN renal): 5.64 µM
TGI (ACHN renal): 15.5 µM
GI50 (CCRF-CEM leukemia): 4.54 µM
TGI (CCRF-CEM leukemia): 26.8 µM
GI50 (KM12 colon): 6.13 µM
TGI (KM12 colon): 17.9 µM
GI50 (NCI-H23 lung): 8.53 µM
TGI (NCI-H23 lung): 19.6 µM
GI50 (A498 renal): 10.7 µM
TGI (A498 renal): 22.2 µM
GI50 (HCT-15 colon): 6.91 µM
TGI (HCT-15 colon): 18.7 µM
GI50 (CAKI-1 renal): 2.88 µM
TGI (CAKI-1 renal): 17.4 µM
GI50 (U251 CNS): 7.49 µM
TGI (U251 CNS): 16 µM
